Results published in patent US7595333B2, “Agent for improving acidosis” (priority 1999, dated 2009).
Counter-ions that a name gives are not always drawn.

Assays:
Wistar fatty rats [1] = test: Effect on ketosis caused by a biguanide (metformin) in Wistar fatty rats (total ketone bodies in plasma); assay type: in vivo, rat; conditions: for concentration of total ketone bodies, higher as compared with Group A (without metformin and pioglitazone hydrochloride) / concentration of total ketone bodies in plasma: metformin 300 mg/kg/day; for concentration of total ketone bodies, higher as compared with Group A (without metformin and pioglitazone hydrochloride): difference of means; for concentration of total ketone bodies in plasma: Wistar fatty rats, pioglitazone hydrochloride 1 mg/kg/day, mean ± SD, n=6
From the text: 3-Hydroxybutyric acid (3-HB) in samples is specifically oxidized by 3-hydroxybutyric acid dehydrogenase (3-HBDH) in the presence of an oxidized form of β-thionicotinamide adenine dinucleotide (thio-NAD) to produce acetoacetic acid (AcAc) and a reduced form of β-thionicotinamide adenine dinucleotide (thio-NADH). […] The concentration of total ketone bodies which is the sum of 3-HB and AcAc in samples can be calculated by determining a production speed of thio-NADH thus obtained.
Effects of an insulin sensitizer (pioglitazone hydrochloride) on ketosis caused by a biguanide (metformin) in Wistar fatty rats, NIDDM models, were studied.
First, Wistar fatty rats (31 week-old, male) were divided into three groups, namely Groups A, B and C, each consisting of 6 rats. […] After administration, blood was collected from the tail vein of the Wistar fatty rats, and total ketone bodies in the plasma were determined in the same manner as in Experimental Example 1.
In the table, W. fatty. Met and Pio mean Wistar fatty rat, metformin and pioglitazone hydrochloride, respectively. Figures in the table represent means ± standard deviation (number of subjects=6).
The concentration of total ketone bodies in plasma of Wistar fatty rats was determined in the same manner as in Experimental Example 2 except that the administration period was changed from 14 days to 7 days.

Wistar fatty rats [2] = test: Effect on diabetic ketosis in Wistar fatty rats (total ketone bodies in plasma); assay type: in vivo, rat; conditions: for concentration of total ketone bodies in plasma: Wistar fatty rats (31 week-old, male), pioglitazone hydrochloride 1 mg/kg body weight/day orally for 14 days, mean ± SD, n=6, control without Pio 170.23 ± 22.33 μM
From the text: For instance, diabetic ketosis is observed in a Wistar fatty rat which is an animal model of non-insulin dependent (type 2) diabetes mellitus. Therefore, a ketosis improving action of a test compound can be evaluated by comparing concentration of total ketone bodies in plasma between Wistar fatty rat groups with administration of a test compound (Experimental group) and Wistar fatty rat groups without administration of a test compound (Control group). […] 3-Hydroxybutyric acid (3-HB) in samples is specifically oxidized by 3-hydroxybutyric acid dehydrogenase (3-HBDH) in the presence of an oxidized form of β-thionicotinamide adenine dinucleotide (thio-NAD) to produce acetoacetic acid (AcAc) and a reduced form of β-thionicotinamide adenine dinucleotide (thio-NADH). […] Effects of an insulin sensitizer (pioglitazone hydrochloride) on diabetic ketosis in Wistar fatty rats, animal models of non-insulin dependent diabetes mellitus (NIDDM), were studied. First, Wistar fatty rats (31 week-old, male) were divided into two groups each consisting of 6 rats. […] After administration, blood was collected from the tail vein of the Wistar fatty rats, and total ketone bodies in the plasma were enzymatically determined by using AutoWako total ketone bodies (Trade name)(Wako Pure Chemical Industries, Ltd., Japan) and Hitachi 7070 Autoanalyzing machine. Wistar lean rats (6 rats), animal models of non diabetes mellitus (normal), were orally administered with a 0.5 (w/v) % aqueous methylcellulose solution for 14 days. Then, total ketone bodies in the plasma were determined in the same manner as above. In the table, W, lean, W. fatty and Pio mean Wistar lean rat, Wistar fatty rat and pioglitazone hydrochloride, respectively. Figures in the table represent means ± standard deviation (number of subjects=6).

| SMILES | concentration of total ketone bodies, higher as compared with Group A (without metformin and pioglitazone hydrochloride) (Wistar fatty rats [1]; 7 days) [µM] | concentration of total ketone bodies, higher as compared with Group A (without metformin and pioglitazone hydrochloride) (Wistar fatty rats [1]; 14 days) [µM] | concentration of total ketone bodies in plasma (Wistar fatty rats [1]; 7 days orally, Group A control 160.37 ± 14.00 μM) [µM] | concentration of total ketone bodies in plasma (Wistar fatty rats [1]; 7 days orally, Group A control 160.37 ± 14.00 μM, listed as Met) [µM] | concentration of total ketone bodies in plasma (Wistar fatty rats [1]; 14 days orally, Group A control 170.23 ± 22.33 μM) [µM] | concentration of total ketone bodies in plasma (Wistar fatty rats [1]; 14 days orally, Group A control 170.23 ± 22.33 μM, listed as Met) [µM] | concentration of total ketone bodies in plasma (Wistar fatty rats [2]) [µM] | concentration of total ketone bodies in plasma (Wistar fatty rats [2]; listed as Pio) [µM] | effect on diabetic ketosis (conclusion in words) (Wistar fatty rats [2]; Wistar fatty rats, 1 mg/kg/day orally, 14 days) | concentration of total ketone bodies, lower as compared with the group without pioglitazone hydrochloride (Wistar fatty rats [2]; Wistar fatty rats, 1 mg/kg/day orally, 14 days, difference of means) [µM] | effect on ketosis caused by a biguanide (conclusion in words) (Wistar fatty rats [1]; Experimental Examples 2 and 3 (14 and 7 days)) |
| --- | --- | --- | --- | --- | --- | --- | --- | --- | --- | --- | --- |
| CN(C)C(=N)N=C(N)N [metformin] | 38.86 | 11.77 | 199.23 ± 55.69 | 199.23 ± 55.69 | 182.00 ± 22.50 | 182.00 ± 22.50 |  |  |  |  |  |
| CCc1ccc(CCOc2ccc(CC3SC(=O)NC3=O)cc2)nc1 (centres unmarked) [pioglitazone hydrochloride, 5-[4-[2-(5-ethyl-2-pyridyl)ethoxy]benzyl]-2,4-thiazolidinedione] |  |  |  |  |  |  | 125.72 ± 12.49 | 125.72 ± 12.49 | improves diabetic ketosis | 44.51 | improves ketosis caused by a biguanide (metformin) |
